The test system of this series is rodent carcinogenicity bioassays, tumor incidence. As to the kind of experiment: CCRIS carcinogenicity studies. In outline: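 Archive of carcinogenicity, mutagenicity, tumor promotion and tumor inhibition results drawn from journals, NCI reports and other sources, expert-reviewed; covers 1985-2011 and is no longer updated.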

Molecules are shown by their SMILES. Calls of active or inactive are those of the source. How the calls were made is not given here.

As for `CCCOC(N)=O`, the carcinogen call (Species: MOUSE, Route: INTRAPERITONEAL, Tumor Site: Type of Lesion: LUNG) was “active; positive”.
With `O=[N+]([O-])c1c2ccc3ccccc3c2cc2ccc3ccccc3c12`, where the note is “Species: MOUSE, Strain/Sex: B6C3F1/MALE, Route: INTRAPERITONEAL, Dose: 0, 400 NMOL IN 35 µL DMSO (TOTAL DOSE) ADMINISTERED IN DOSES OF 1/7, 2/7, AND 4/7 OF THE TOTAL DOSE ON DAYS 1,8, AND 15, Tumor Site: Type of Lesion: LIVER :ADENOMA”, the carcinogen call is “active; positive”.
`OC[C@@H](O)[C@@H](O)[C@H](O)[C@H](O)CO`: the carcinogen call is “inactive; negative” (Species: MOUSE, Strain/Sex: B6C3F1/FEMALE, Route: ORAL, Dose: 0, 2.5, 5% IN THE DIET FOR 103 WK (STUDY DURATION: 103 WK), Dose: 0, 2.5, 5% IN THE DIET FOR 103 WK (STUDY DURATION: 103 WK)); “inactive; negative” (Species: MOUSE, Strain/Sex: B6C3F1/FEMALE, Route: ORAL, Dose: 0, 25000, 50000 PPM IN DIET, Dose: 0, 25000, 50000 PPM IN DIET); “inactive; negative” (Species: MOUSE, Strain/Sex: B6C3F1/MALE, Route: ORAL, Dose: 0, 2.5, 5% IN THE DIET FOR 103 WK (STUDY DURATION: 103 WK), Dose: 0, 2.5, 5% IN THE DIET FOR 103 WK (STUDY DURATION: 103 WK)); “inactive; negative” (Species: MOUSE, Strain/Sex: B6C3F1/MALE, Route: ORAL, Dose: 0, 25000, 50000 PPM IN DIET, Dose: 0, 25000, 50000 PPM IN DIET); “inactive; negative” (Species: RAT, Strain/Sex: F344/FEMALE, Route: ORAL, Dose: 0, 2.5, 5% IN THE DIET FOR 103 WK (STUDY DURATION: 103 WK), Dose: 0, 2.5, 5% IN THE DIET FOR 103 WK (STUDY DURATION: 103 WK)); “inactive; negative” (Species: RAT, Strain/Sex: F344/FEMALE, Route: ORAL, Dose: 0, 25000, 50000 PPM IN DIET, Dose: 0, 25000, 50000 PPM IN DIET). The carcinogen call (Species: RAT, Strain/Sex: F344/MALE, Route: ORAL, Dose: 0, 2.5, 5% IN THE DIET FOR 103 WK (STUDY DURATION: 103 WK), Dose: 0, 2.5, 5% IN THE DIET FOR 103 WK (STUDY DURATION: 103 WK)) was “inactive; negative” and the carcinogen call (Species: RAT, Strain/Sex: F344/MALE, Route: ORAL, Dose: 0, 25000, 50000 PPM IN DIET, Dose: 0, 25000, 50000 PPM IN DIET) was “inactive; negative”.
In the case of `c1ccc2c(c1)ccc1cc3ccc4c(c3nc12)[C@H]1O[C@H]1CC4`, the carcinogen call was “active; positive” (Species: MOUSE, Strain/Sex: CD-1/FEMALE, Route: INTRAPERITONEAL, Dose: 0, 28 NMOL (TOTAL DOSE) ADMINISTERED AS 1/7 OF DOSE WITHIN 24 HR AFTER BIRTH, 2/7 OF DOSE AT 8 D OLD, 4/7 OF DOSE AT 15, Tumor Site: Type of Lesion: LUNG: TUMOR) and “active; positive” (Species: MOUSE, Strain/Sex: CD-1/MALE, Route: INTRAPERITONEAL, Dose: 0, 28 NMOL (TOTAL DOSE) ADMINISTERED AS 1/7 OF DOSE WITHIN 24 HR AFTER BIRTH, 2/7 OF DOSE AT 8 D OLD, 4/7 OF DOSE AT 15, Tumor Site: Type of Lesion: LIVER: TUMOR, LUNG: TUMOR).
Take `COP(=S)(OC)Oc1ccc(SC)c(C)c1`: the carcinogen call runs as follows: (Species: MOUSE, Strain/Sex: B6C3F1/FEMALE, Route: ORAL, Dose: 0, 10, 20 PPM IN DIET, Dose: 0, 10, 20 PPM IN DIET) “inactive; negative”; (Species: Mouse, Strain/Sex: B6C3F1/Female (60/group), Route: Oral, Dose: 0, 0.1, 1, 5, 25 ppm in diet for up to 2 yr, study duration 2 yr, Dose: 0, 0.1, 1, 5, 25 ppm in diet for up to 2 yr, study duration 2 yr) “inactive; negative”; (Species: Mouse, Strain/Sex: B6C3F1/Male (60/group), Route: Oral, Dose: 0, 0.1, 1, 5, 25 ppm in diet for up to 2 yr, study duration 2 yr, Dose: 0, 0.1, 1, 5, 25 ppm in diet for up to 2 yr, study duration 2 yr) “inactive; negative”; (Species: RAT, Strain/Sex: F344/MALE, Route: ORAL, Dose: 0, 10, 20 PPM IN DIET, Dose: 0, 10, 20 PPM IN DIET) “inactive; negative”; (Species: Rat, Strain/Sex: Fischer 344/Female (50/Group), Route: Oral, Dose: 0 (corn oil), 5, 20, 100 ppm in diet for 2 yr, study duration 2 yr, Dose: 0 (corn oil), 5, 20, 100 ppm in diet for 2 yr, study duration 2 yr) “inactive; negative”; (Species: Rat, Strain/Sex: Fischer 344/Male (50/Group), Route: Oral, Dose: 0 (corn oil), 5, 20, 100 ppm in diet for 2 yr, study duration 2 yr, Dose: 0 (corn oil), 5, 20, 100 ppm in diet for 2 yr, study duration 2 yr) “inactive; negative”.
In the case of `Cc1ccc(O)c(O)c1`, the carcinogen call runs as follows: (Species: RAT, Strain/Sex: F344/FEMALE, Route: ORAL, Dose: 0, 2% IN DIET FOR 104 WK (STUDY DURATION: 104 WK), Tumor Site: Type of Lesion: FORESTOMACH: PAPILLOMA, SQUAMOUS CELL CARCINOMA, GLANDULAR STOMACH: ADENOMA, ADENOCARCINOMA) “active; positive”; (Species: RAT, Strain/Sex: F344/MALE, Route: ORAL, Dose: 0, 2% IN DIET FOR 104 WK (STUDY DURATION: 104 WK), Tumor Site: Type of Lesion: FORESTOMACH: PAPILLOMA, SQUAMOUS CELL CARCINOMA, GLANDULAR STOMACH: ADENOMA, ADENOCARCINOMA) “active; positive”.
Take `CC1=CC(C)(C)N(N=O)c2ccccc21`: under “Species: RAT, Strain/Sex: CB/MALE, Route: INTRAPERITONEAL, Dose: 0, 25 MG IN POLYETHYLENE GLYCOL 400 1/WK FOR 6 MO FOR A TOTAL DOSE OF 0, 650 MG (STUDY DURATION: 24 MO), Dose: 0, 25 MG IN POLYETHYLENE GLYCOL 400 1/WK FOR 6 MO FOR A TOTAL DOSE OF 0, 650 MG (STUDY DURATION: 24 MO), Tumor Site: Type of Lesion: PERITONEUM: SARCOMA”, the carcinogen call was “active; positive”.
`c1ccc2c(c1)ccc1c2ccc2c3ccccc3ccc21`: the carcinogen call (Species: MOUSE, Strain/Sex: NMRI/FEMALE, Route: DERMAL, Dose: 0, 136, 448, 1358 NMOL (TOTAL DOSE) APPLIED AS 1 DROP OF ACETONE SOLUTION 3/WK FOR DURATION OF STUDY (STUDY DURATION: 11, Dose: 0, 136, 448, 1358 NMOL (TOTAL DOSE) APPLIED AS 1 DROP OF ACETONE SOLUTION 3/WK FOR DURATION OF STUDY (STUDY DURATION: 11, Tumor Site: Type of Lesion: SKIN: PAPILLOMA) is “active; positive”; the carcinogen call (Species: MOUSE, Strain/Sex: NMRI/FEMALE, Route: SUBCUTANEOUS, Dose: 0, 36, 40, 108, 308, 399 NMOL IN TRICAPRYLIN ONCE (STUDY DURATION: 112 WK), Dose: 0, 36, 40, 108, 308, 399 NMOL IN TRICAPRYLIN ONCE (STUDY DURATION: 112 WK), Tumor Site: Type of Lesion: INJECTION SITE: FIBROSARCOMA) was “active; positive”; the carcinogen call (Species: MOUSE, Strain/Sex: NMRI/FEMALE, Route: SUBCUTANEOUS, Dose: 0, 40, 400 NMOL IN 0.05 ML OF AN AQUEOUS SOLUTION CONTAINING 1% (W/W) GELATIN 0.9% (W/W) SODIUM CHLORIDE AND 0.4% (W/W), Dose: 0, 40, 400 NMOL IN 0.05 ML OF AN AQUEOUS SOLUTION CONTAINING 1% (W/W) GELATIN 0.9% (W/W) SODIUM CHLORIDE AND 0.4% (W/W), Tumor Site: Type of Lesion: LUNG: ADENOMA) was “active; positive”.
As to `CCCNC(=O)NS(=O)(=O)c1ccc(Cl)cc1`, the carcinogen call by setting is: (Species: MOUSE, Strain/Sex: B6C3F1/FEMALE, Route: ORAL, Dose: 0, 3317, 6635 PPM IN DIET, Dose: 0, 3317, 6635 PPM IN DIET) “inactive; negative”; (Species: MOUSE, Strain/Sex: B6C3F1/MALE, Route: ORAL, Dose: 0, 3317, 6635 PPM IN DIET, Dose: 0, 3317, 6635 PPM IN DIET) “inactive; negative”; (Species: RAT, Strain/Sex: F344/FEMALE, Route: ORAL, Dose: 0, 3000, 6000 PPM IN DIET, Dose: 0, 3000, 6000 PPM IN DIET) “inactive; negative”; (Species: RAT, Strain/Sex: F344/MALE, Route: ORAL, Dose: 0, 3000, 6000 PPM IN DIET, Dose: 0, 3000, 6000 PPM IN DIET) “inactive; negative”.
With `NNc1ccccc1`, for the setting “Species: MOUSE, Route: ORAL, Tumor Site: Type of Lesion: BLOOD VESSELS, LUNG”, the carcinogen call was “active; positive”.
